Tested on: male ICR-mice
Assay: Potentiation of sodium pentobarbital sleeping time test
Format: in vivo
Experimental: Effects of N^6-substituted adenosine derivatives and/or N^6-substituted adenine derivatives on sodium pentobarbital-induced sleeping time in mice.
Name of Experiment: Potentiation of sodium pentobarbital sleeping time test.
Method of Experiment: Groups of 8-10 male ICR-mice with an average weight of 18-22 g were used. They were dosed orally or i.p. with the test compound or the vehicle. Thirty min after i.p. injection or 60 min after oral dosing 38 mg/kg sodium pentobarbital were injected intravenously. The latency and duration of sleep (loss of righting reflex) were recorded. The percentage of prolongation of sleeping time was calculated as: [(sleeping time of experimental group)−(sleeping time of control group)]/(sleeping time of control group)×100%.

[1] = oral, 5 mg/kg, 38 mg/kg sodium pentobarbital 60 min later
[2] = oral, 2.5 mg/kg, 38 mg/kg sodium pentobarbital 60 min later
[3] = intraperitoneal, 1 mg/kg, 38 mg/kg sodium pentobarbital 30 min later
[4] = intraperitoneal, 5 mg/kg, 38 mg/kg sodium pentobarbital 30 min later

Row | SMILES | Sleep prolonging rate (%) [1] [%] | other results
1 | CC(Nc1ncnc2c1ncn2[C@@H]1O[C@H](CO)[C@@H](O)[C@H]1O)c1ccc(O)cc1 (mixture of isomers) [Example 47, N^6-[(±)-1-(4-hydroxyphenyl)-ethyl]-adenosine] | 50 | –
2 | CC(Nc1ncnc2c1ncn2[C@@H]1O[C@H](CO)[C@@H](O)[C@H]1O)c1ccc(N)cc1 (mixture of isomers) [Example 48, N^6-[(±)-1-(4-aminophenyl)-ethyl]-adenosine] | – | Sleep prolonging rate (%) [2]: 132%
3 | COc1cc(C(C)Nc2ncnc3c2ncn3[C@@H]2O[C@H](CO)[C@@H](O)[C@H]2O)ccc1O (mixture of isomers) [Example 50, N^6-[(±)-1-(3-methoxy-4-hydroxy-phenyl)-ethyl]-adenosine] | 119 | –
4 | CCC(Nc1ncnc2c1ncn2[C@@H]1O[C@H](CO)[C@@H](O)[C@H]1O)c1ccccc1 (mixture of isomers) [Example 72, N^6-[(±)-1-(phenyl)-propyl]-adenosine] | – | Sleep prolonging rate (%) [2]: 135%
5 | CCC(Nc1ncnc2c1ncn2[C@@H]1O[C@H](CO)[C@@H](O)[C@H]1O)c1ccc(OC)cc1 (mixture of isomers) [Example 74, N^6-[(±)-1-(4-methoxyphenyl)-propyl]-adenosine] | – | Sleep prolonging rate (%) [2]: 86%
6 | CCCC(Nc1ncnc2c1ncn2[C@@H]1O[C@H](CO)[C@@H](O)[C@H]1O)c1ccccc1 (mixture of isomers) [Example 87, N^6-[(±)-1-(phenyl)-butyl]-adenosine] | 57 | –
7 | CCCC(Nc1ncnc2c1ncn2[C@@H]1O[C@H](CO)[C@@H](O)[C@H]1O)c1ccc(OC)cc1 (mixture of isomers) [Example 88, N^6-[(±)-1-(4-methoxyphenyl)-butyl]-adenosine] | 80 | –
8 | COc1ccc2c(c1)CCCC2Nc1ncnc2c1ncn2[C@@H]1O[C@H](CO)[C@@H](O)[C@H]1O (mixture of isomers) [Example 96, N^6-[(±)-(6-methoxy-1,2,3,4-tetrahydro-naphthalene-1-yl)]-adenosine] | 170 | –
9 | OC[C@H]1O[C@@H](n2cnc3c(NC4CCCc5c(O)cccc54)ncnc32)[C@H](O)[C@@H]1O (mixture of isomers) [Example 97, N^6-[(±)-(5-hydroxy-1,2,3,4-tetrahydro-naphthalene-1-yl)]-adenosine] | 39 | –
10 | CCCCCCCC(=O)OC[C@H]1O[C@@H](n2cnc3c(NC(C)c4cc(OC)c(OC)c(OC)c4)ncnc32)[C@H](O)[C@@H]1O (mixture of isomers) [Example 53, N^6-[(±)-1-(3,4,5-trimethoxyphenyl)-ethyl]-adenosine-5′-caprylate] | 130 | –
11 | COc1ccc(CCC(=O)OC[C@H]2O[C@@H](n3cnc4c(NC(C)c5cc(OC)c(OC)c(OC)c5)ncnc43)C(O)C2O)cc1 (mixture of isomers) [Example 54, N^6-[(±)-1-(3,4,5-trimethoxyphenyl)-ethyl]-adenosine-5′-p-methoxy-phenyl propionate] | 76 | –
12 | CCCOC[C@H]1O[C@@H](n2cnc3c(NC(C)c4cc(OC)c(OC)c(OC)c4)ncnc32)C(O)C1O (mixture of isomers) [Example 55, N^6-[(±)-1-(3,4,5-trimethoxyphenyl)-ethyl]-adenosine-5′-propyl ether] | 14 | –
13 | OC[C@H]1O[C@@H](n2cnc3c(NC(c4ccccc4)C4CCCCC4)ncnc32)C(O)C1O (mixture of isomers) [Example 93, N^6-[(±)-1-(cyclohexylphenyl)-methyl]-adenosine] | 17 | –
14 | OC[C@H]1O[C@@H](n2cnc3c(NC(Cc4ccccc4)c4ccccc4)ncnc32)C(O)C1O (mixture of isomers) [Example 94, N^6-[(±)-1-(1,2-diphenyl)-ethyl]-adenosine] | 36 | –
15 | CC(C(O)c1ccccc1)N(C)c1ncnc2c1ncn2[C@@H]1O[C@H](CO)C(O)C1O (mixture of isomers) [Example 137, N^6-methyl-N^6-[(±)-2-(1-hydroxy-1-phenyl)-propyl]-adenosine] | 92 | –
16 | COc1cc(C(C)Nc2ncnc3c2ncn3[C@H]2C[C@H](O)[C@@H](CO)O2)cc(OC)c1OC (mixture of isomers) [Example 157, N^6-[(±)-1-(3,4,5-trimethoxyphenyl)-ethyl]-2′-deoxy-adenosine] | 9 | –
17 | CC[C@H](Nc1ncnc2c1ncn2[C@@H]1O[C@H](COC(=O)/C=C/c2ccc(C)cc2)C(O)C1O)c1ccccc1 (stereo in doubt) [Example 82, N^6-[(S)-1-(phenyl)-propyl]-adenosine-5′-p-methyl-cinnamate] | 50 | –
18 | Cc1ccc(CNc2ncnc3c2ncn3[C@@H]2O[C@H](CO)[C@@H](O)[C@H]2O)cc1 [Example 4, N^6-(p-methylbenzyl)-adenosine] | – | Sleep prolonging rate (%) [3]: 51%
19 | Cc1cccc(CNc2ncnc3c2ncn3[C@@H]2O[C@H](CO)[C@@H](O)[C@H]2O)c1 [Example 5, N^6-(m-methylbenzyl)-adenosine] | – | Sleep prolonging rate (%) [3]: 84%
20 | Nc1ccc(CNc2ncnc3c2ncn3[C@@H]2O[C@H](CO)[C@@H](O)[C@H]2O)cc1 [Example 6, N^6-(p-aminobenzyl)-adenosine] | 171 | Sleep prolonging rate (%) [3]: 165%
21 | Cc1ccc(CNc2ncnc3c2ncn3[C@@H]2O[C@H](CO)[C@@H](O)[C@H]2O)o1 [Example 18, N^6-(5-methyl-2-furanylmethyl)-adenosine] | – | Sleep prolonging rate (%) [4]: 7%
22 | OC[C@H]1O[C@@H](n2cnc3c(NCc4cccs4)ncnc32)[C@H](O)[C@@H]1O [Example 19, N^6-(2-thiopheneylmethyl)-adenosine] | – | Sleep prolonging rate (%) [4]: 12%
23 | CCCCCCCCCCCC(=O)OCC1OC(n2cnc3c(NCc4ccc(OC(=O)CCCCCCCCCCC)c(OC)c4)ncnc32)C2OC(C)(C)OC12 (centres unmarked) [Example 25, N^6-(3-methoxy-4-lauroyloxybenzyl)-2′,3′-O-isopropylidene-adenosine-5′-laurate] | 27 | –
24 | CCCCCCCC(=O)OC[C@H]1O[C@@H](n2cnc3c(NCc4ccc(OC(=O)CCCCCCC)c(OC)c4)ncnc32)[C@H](O)[C@@H]1O [Example 26, N^6-(3-methoxy-4-octanoyloxybenzyl)-adenosine-5′-caprylate] | 184 | –
25 | CCCCCCCC(=O)OC[C@H]1O[C@@H](n2cnc3c(NCc4ccc5c(c4)OCO5)ncnc32)[C@H](O)[C@@H]1O [Example 32, N^6-(3,4-methylenedioxybenzyl)-adenosine-5′-caprylate] | 26 | –
26 | CCCOC[C@H]1O[C@@H](n2cnc3c(NCc4ccc5c(c4)OCO5)ncnc32)C(O)C1O (some centres unmarked) [Example 35, N^6-(3,4-methylenedioxybenzyl)-adenosine-5′-propyl ether] | 36 | –
27 | COc1cc(CNc2ncnc3c2ncn3[C@@H]2O[C@H](CO)C(O)C2O)cc(OC)c1OC (some centres unmarked) [Example 37, N^6-(3,4,5-trimethxoybenzyl)-adenosine] | – | Sleep prolonging rate (%) [3]: 112%
28 | OC[C@H]1O[C@@H](n2cnc3c(NCCc4ccc(O)c(O)c4)ncnc32)C(O)C1O (some centres unmarked) [Example 38] | 69 | Sleep prolonging rate (%) [3]: 98%
29 | OC[C@H](Nc1ncnc2c1ncn2[C@@H]1O[C@H](CO)C(O)C1O)[C@@H](O)c1ccccc1 (stereo partly drawn) [Example 41, N^6-[(1S,2S)-2-(1,3-dihydroxy-1-phenyl)-propyl]-adenosine] | 33 | –
30 | OC[C@H]1O[C@@H](n2cnc3c(N[C@H](CO)[C@H](O)c4ccccc4)ncnc32)C(O)C1O (stereo partly drawn) [Example 42, N^6-[(1R,2R)-2-(1,3-dihydroxy-1-phenyl)-propyl]-adenosine] | 4 | –

— patent US10174033B2, “N6-substituted adenosine derivatives and N6-substituted adenine derivatives and uses thereof” (INSTITUTE OF MATERIA MEDICA, CHINESE ACADEMY OF MEDICAL …, priority 2009, dated 2019)
